Test results as given in patent US11046699B2, “Pyrazolo-pyrimidin-amino-cycloalkyl compounds and their therapeutic uses” (RAPT THERAPEUTICS, INC., priority 2018, dated 2021).

The molecules below were run against GCN2 (Homo sapiens, UniProt Q9P2K8) (assay: GCN2 enzymatic endpoint assay: phosphorylation of GFP-eIF2α measured by TR-FRET (Lanthascreen)). Conditions: GCN2 biochemical IC50; 4 nM GCN2, 2 μM ATP, 80 nM GFP-eIF2α, 90 min RT; read-out: GCN2 activity.
Assay type: biochemical
Method in brief: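 Endpoint kinase reaction with 2 μM ATP and 80 nM GFP-labelled eIF2α substrate, run at room temperature for 90 min, then stopped with EDTA. Phospho-substrate detected by terbium-antibody TR-FRET, activity taken as the 520/495 nm emission ratio.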

Chain of GCN2 (Q9P2K8 whole entry): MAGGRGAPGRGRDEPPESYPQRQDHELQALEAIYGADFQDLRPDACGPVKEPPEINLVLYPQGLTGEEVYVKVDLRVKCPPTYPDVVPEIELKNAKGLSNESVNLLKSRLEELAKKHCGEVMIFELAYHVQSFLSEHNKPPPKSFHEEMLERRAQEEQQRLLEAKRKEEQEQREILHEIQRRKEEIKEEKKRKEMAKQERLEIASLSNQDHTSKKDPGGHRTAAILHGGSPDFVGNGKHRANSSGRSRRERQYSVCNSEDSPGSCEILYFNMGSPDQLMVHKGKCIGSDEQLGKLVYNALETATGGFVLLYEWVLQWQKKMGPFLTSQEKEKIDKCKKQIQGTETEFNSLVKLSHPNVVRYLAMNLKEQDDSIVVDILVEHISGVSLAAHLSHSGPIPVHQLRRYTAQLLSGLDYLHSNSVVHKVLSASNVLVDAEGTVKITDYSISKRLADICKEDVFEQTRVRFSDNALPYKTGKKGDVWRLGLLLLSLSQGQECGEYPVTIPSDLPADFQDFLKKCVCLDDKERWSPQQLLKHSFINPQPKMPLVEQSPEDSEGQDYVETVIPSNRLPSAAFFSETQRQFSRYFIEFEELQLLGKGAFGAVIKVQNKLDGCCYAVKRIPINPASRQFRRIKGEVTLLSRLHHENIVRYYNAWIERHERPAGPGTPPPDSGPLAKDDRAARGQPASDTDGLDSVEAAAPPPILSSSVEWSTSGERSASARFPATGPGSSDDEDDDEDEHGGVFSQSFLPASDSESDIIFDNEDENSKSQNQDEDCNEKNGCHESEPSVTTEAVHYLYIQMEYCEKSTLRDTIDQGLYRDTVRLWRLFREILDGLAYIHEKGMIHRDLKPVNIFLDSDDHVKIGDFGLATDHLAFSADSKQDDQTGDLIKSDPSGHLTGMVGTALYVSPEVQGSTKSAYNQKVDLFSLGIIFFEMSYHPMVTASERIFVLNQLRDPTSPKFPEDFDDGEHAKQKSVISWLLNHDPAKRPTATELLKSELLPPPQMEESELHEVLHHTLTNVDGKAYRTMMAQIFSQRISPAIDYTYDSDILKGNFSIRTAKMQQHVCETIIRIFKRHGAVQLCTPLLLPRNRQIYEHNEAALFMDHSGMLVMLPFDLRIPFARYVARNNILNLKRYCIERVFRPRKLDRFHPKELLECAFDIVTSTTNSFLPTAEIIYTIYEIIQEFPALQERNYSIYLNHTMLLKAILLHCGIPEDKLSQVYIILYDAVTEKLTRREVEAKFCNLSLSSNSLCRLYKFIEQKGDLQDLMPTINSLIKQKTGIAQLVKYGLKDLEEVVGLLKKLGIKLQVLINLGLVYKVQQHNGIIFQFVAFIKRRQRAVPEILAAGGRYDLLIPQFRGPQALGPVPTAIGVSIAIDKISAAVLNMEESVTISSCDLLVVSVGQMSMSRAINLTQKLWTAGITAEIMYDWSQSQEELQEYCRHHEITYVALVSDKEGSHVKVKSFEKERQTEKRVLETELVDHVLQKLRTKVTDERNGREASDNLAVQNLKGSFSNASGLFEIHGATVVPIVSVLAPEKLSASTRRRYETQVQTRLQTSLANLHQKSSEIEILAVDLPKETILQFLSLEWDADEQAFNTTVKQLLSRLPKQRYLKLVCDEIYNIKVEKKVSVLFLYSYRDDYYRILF

IC50 | Structure (SMILES)
< 25 nM | CNC(=O)[C@]1(C)CC[C@@H](Nc2ncc3c(Br)nn(-c4cc(Cl)cc([C@H](C)N)c4)c3n2)C1 [Example 64, (1R,3R)-3-((1-(3-((S)-1-aminoethyl)-5-chlorophenyl)-3-bromo-1H-pyrazolo[3,4-d]pyrimidin-6-yl)amino)-N,1-dimethylcyclopentane-1-carboxamide]
25 to 200 nM | CNC(=O)C1(C)CC[C@@H](Nc2ncc3c(Br)nn(-c4cc(Cl)cc(CO)c4)c3n2)C1 (mixture of isomers) [Example 17, (3R)-3-((3-bromo-1-(3-chloro-5-(hydroxymethyl)phenyl)-1H-pyrazolo[3,4-d]pyrimidin-6-yl)amino)-N,1-dimethylcyclopentane-1-carboxamide]

Same assay, conditions: tested as described in Example 77; compound and/or hydrochloride, dihydrochloride or trifluoroacetic acid salt; read-out: IC 50 Activity

Structure (SMILES) | IC50
O=C(NCCN1CCNC1=O)[C@@H]1CC[C@@H](Nc2ncc3c(Br)nn(-c4cc(F)c5ncccc5c4)c3n2)C1 [(1R,3R)-3-((3-bromo-1-(8-fluoroquinolin-6-yl)-1H-pyrazolo[3,4-d]pyrimidin-6-yl)amino)-N-(2-(2-oxoimidazolidin-1-yl)ethyl)cyclo-pentane-1-carboxamide] | 25 to 200 nM
CNC(=O)[C@]1(C)CC[C@@H](Nc2ncc3c(Br)nn(-c4ccc5c(c4)OCC(=O)N5CCO)c3n2)C1 [(1R,3R)-3-[[3-bromo-1-[4-(2-hydroxy-ethyl)-3-oxo-1,4-benzoxazin-7-yl]pyrazolo[3,4-d]pyrimidin-6-yl]amino]-N,1-dimethyl-cyclopentanecarboxamide] | 25 to 200 nM
CNC(=O)[C@]1(C)CC[C@@H](Nc2ncc3c(Br)nn(-c4ccc(-n5nccn5)cc4)c3n2)C1 [(1R,3R)-3-[[3-bromo-1-[4-(triazol-2-yl)phenyl]pyrazolo[3,4-d]pyrimidin-6-yl]amino]-N,1-dimethyl-cyclopentane-carboxamide] | 25 to 200 nM
COc1ccc(-n2nc(Br)c3cnc(N[C@@H]4CC[C@@H](C(=O)N5CCN(C)C(=O)C5)C4)nc32)cc1C#N [5-(3-bromo-6-(((1R,3R)-3-(4-methyl-3-oxo-piperazine-1-carbonyl)cyclopentyl)amino)-1H-pyrazolo[3,4-d]pyrimidin-1-yl)-2-methoxybenzonitrile] | 200 to 500 nM
CNC(=O)[C@]1(C)CC[C@@H](Nc2ncc3c(Br)nn(-c4cc(CN)c5nccnc5c4)c3n2)C1 [(1R,3R)-3-[[1-[8-(aminomethyl)quinoxalin-6-yl]-3-bromo-pyrazolo[3,4-d]pyrimidin-6-yl]amino]-N,1-dimethyl-cyclopentane-carboxamide] | 25 to 200 nM
CNC(=O)[C@]1(C)CC[C@@H](Nc2ncc3c(Br)nn(-c4cc(CO)cc(C(F)(F)F)c4)c3n2)C1 [(1R,3R)-3-[[3-bromo-1-[3-(hydroxy-methyl)-5-(trifluoromethyl)phenyl]pyrazolo[3,4-d]pyrimidin-6-yl]amino]-N,1-dimethyl-cyclopentanecarboxamide] | 25 to 200 nM
CNC(=O)[C@@]1(CC(F)(F)F)CC[C@@H](Nc2ncc3c(Br)nn(-c4ccc(-c5nnc(C)s5)cc4)c3n2)C1 | 25 to 200 nM
N#CCN1CCN(C(=O)[C@@H]2CC[C@@H](Nc3ncc4c(Br)nn(-c5cc(F)c6ncccc6c5)c4n3)C2)CC1 [2-[4-[(1R,3R)-3-[[3-bromo-1-(8-fluoro-6-quinolyl)pyrazolo[3,4-d]pyrimidin-6-yl]amino]cyclopentanecarbonyl]piperazin-1-yl]acetonitrile] | 25 to 200 nM
CC(C)OCCNC(=O)[C@@H]1CC[C@@H](Nc2ncc3c(Br)nn(-c4ccc5ncccc5c4)c3n2)C1 [(1R,3R)-3-((3-bromo-1-(quinolin-6-yl)-1H-pyrazolo[3,4-d]pyrimidin-6-yl)amino)-N-(2-isopropoxyethyl)cyclopentane-1-carboxamide] | 200 to 500 nM
CNC(=O)[C@]1(C)CC[C@@H](Nc2ncc3c(Br)nn(-c4cc(Cl)cc(C(=O)N(C)C)c4)c3n2)C1 [3-[3-bromo-6-[[(1R,3R)-3-methyl-3-(methylcarbamoyl)cyclopentyl]amino]pyrazolo[3,4-d]pyrimidin-1-yl]-5-chloro-N,N-dimethyl-benzamide] | 25 to 200 nM
CNC(=O)[C@]1(C)CC[C@@H](Nc2ncc3c(Br)nn(-c4ccc5c(c4)S(=O)(=O)CC(=O)N5C)c3n2)C1 | 25 to 200 nM
CCS(=O)(=O)N1Cc2ccc(-n3nc(Br)c4cnc(N[C@@H]5CC[C@@](C)(C(=O)NC)C5)nc43)cc2C1 [(1R,3R)-3-[[3-bromo-1-(2-ethylsulfonyl-isoindolin-5-yl)pyrazolo[3,4-d]pyrimidin-6-yl]amino]-N,1-dimethyl-cyclopentane-carboxamide] | 25 to 200 nM
CC1(C(=O)NCC(F)(F)F)CC[C@@H](Nc2ncc3c(Br)nn(-c4cc(F)c5ncccc5c4)c3n2)C1 (stereo partly drawn) [(3R)-3-[[3-bromo-1-(8-fluoro-6-quinolyl)pyrazolo[3,4-d]pyrimidin-6-yl]amino]-1-methyl-N-(2,2,2-trifluoroethyl)cyclo-pentanecarboxamide] | 25 to 200 nM
CNC(=O)[C@]1(C)CC[C@@H](Nc2ncc3c(Br)nn(-c4cc(OCC5(F)CNC5)cc(OC(F)(F)F)c4)c3n2)C1 [(1R,3R)-3-[[3-bromo-1-[3-[(3-fluoroazetidin-3-yl)methoxy]-5-(trifluoromethoxy)phenyl]pyrazolo[3,4-d]pyrimidin-6-yl]amino]-N,1-dimethyl-cyclopentanecarboxamide] | 25 to 200 nM
CNC(=O)C1(C)CC[C@@H](Nc2ncc3c(Br)nn(-c4ccc(Cn5ccnc5)cc4)c3n2)C1 (stereo partly drawn) [(3R)-3-[[3-bromo-1-[4-(imidazol-1-ylmethyl)phenyl]pyrazolo[3,4-d]pyrimidin-6-yl]amino]-N,1-dimethyl-cyclopentanecarboxamide] | 25 to 200 nM

The remaining lines, values ahead:

IC50 | Structure (SMILES)
25 to 200 nM | CNC(=O)[C@]1(C)CC[C@@H](Nc2ncc3c(Br)nn(-c4cc(CN5CCNCC5=O)c5ncccc5c4)c3n2)C1 [(1R,3R)-3-[[3-bromo-1-[8-[(2-oxopiperazin-1-yl)methyl]-6-quinolyl]pyrazolo[3,4-d]pyrimidin-6-yl]amino]-N,1-dimethyl-cyclopentanecarboxamide]
25 to 200 nM | O=C(NCc1ncco1)[C@@H]1CC[C@@H](Nc2ncc3c(Br)nn(-c4ccc5ncccc5c4)c3n2)C1 [(1R,3R)-3-((3-bromo-1-(quinolin-6-yl)-1H-pyrazolo[3,4-d]pyrimidin-6-yl)amino)-N-(oxazol-2-ylmethyl)cyclopentane-1-carboxamide]
< 25 nM | CNC(=O)[C@]1(C)CC[C@@H](Nc2ncc3c(Br)nn(-c4cc(C(C)CO)c5ncccc5c4)c3n2)C1 (stereo partly drawn) [(1R,3R)-3-[[3-bromo-1-[8-(2-hydroxy-1-methyl-ethyl)-6-quinolyl]pyrazolo[3,4-d]pyrimidin-6-yl]amino]-N,1-dimethyl-cyclopentanecarboxamide]
25 to 200 nM | CNC(=O)[C@]1(C)CC[C@@H](Nc2ncc3c(Br)nn(-c4ccc5c(c4)CN(S(=O)(=O)CC(F)F)C5)c3n2)C1 [(1R,3R)-3-[[3-bromo-1-[2-(2,2-difluoroethylsulfonyl)isoindolin-5-yl]pyrazolo[3,4-d]pyrimidin-6-yl]amino]-N,1-dimethyl-cyclopentanecarboxamide]
25 to 200 nM | CNC(=O)[C@]1(C)CC[C@@H](Nc2ncc3c(Br)nn(-c4cc(Cl)cc(C5CN(C)C(=O)CO5)c4)c3n2)C1 (stereo partly drawn) [(1R,3R)-3-[[3-bromo-1-[3-chloro-5-(4-methyl-5-oxo-morpholin-2-yl)phenyl]pyrazolo[3,4-d]pyrimidin-6-yl]amino]-N,1-dimethyl-cyclopentane-carboxamide]
25 to 200 nM | CNC(=O)[C@]1(C)CC[C@@H](Nc2ncc3c(Br)nn(-c4ccc(-c5ncco5)c(CNS(C)(=O)=O)c4)c3n2)C1 [(1R,3R)-3-[[3-bromo-1-[3-(methane-sulfonamidomethyl)-4-oxazol-2-yl-phenyl]pyrazolo[3,4-d]pyrimidin-6-yl]amino]-N,1-dimethyl-cyclopentanecarboxamide]
25 to 200 nM | CNC(=O)[C@@H]1CC[C@@H](Nc2ncc3c(Br)nn(-c4ccc(-c5cnn(CCOC)c5)cc4)c3n2)C1 [(1R,3R)-3-[[3-bromo-1-[4-[1-(2-methoxy-ethyl)pyrazol-4-yl]phenyl]pyrazolo[3,4-d]pyrimidin-6-yl]amino]-N-methyl-cyclopentanecarboxamide]
25 to 200 nM | COCCNC(=O)[C@]1(C)CC[C@@H](Nc2ncc3c(Br)nn(-c4ccc(-c5nnc(C)s5)cc4)c3n2)C1 [(1R,3R)-3-[[3-bromo-1-[4-(5-methyl-1,3,4-thiadiazol-2-yl)phenyl]pyrazolo [3,4-d]pyrimidin-6-yl]amino]-N-(2-methoxyethyl)-1-methyl-cyclopentane-carboxamide]
25 to 200 nM | CNC(=O)[C@]1(C)CC[C@@H](Nc2ncc3c(Br)nn(-c4ccc(-c5cnn(C)c5)cc4)c3n2)C1 [(1R,3R)-3-[[3-bromo-1-[4-(1-methyl-pyrazol-4-yl)phenyl]pyrazolo[3,4-d]pyrimidin-6-yl]amino]-N,1-dimethyl-cyclopentanecarboxamide]
25 to 200 nM | COCCNC(=O)[C@@H]1CCC(Nc2ncc3c(Br)nn(-c4ccc(-c5nnc(C)s5)cc4)c3n2)C1 (stereo partly drawn) [(1R)-3-[[3-bromo-1-[4-(5-methyl-1,3,4-thiadiazol-2-yl)phenyl]pyrazolo[3,4-d]pyrimidin-6-yl]amino]-N-(2-methoxy-ethyl)cyclopentanecarboxamide]
< 25 nM | CNC(=O)[C@]1(C)CC[C@@H](Nc2ncc3c(Br)nn(-c4cc([C@@H](C)CO)c5ncccc5c4)c3n2)C1 [(1R,3R)-3-[[3-bromo-1-[8-[(1R)-2-hydroxy-1-methyl-ethyl]-6-quinolyl]pyrazolo[3,4-d]pyrimidin-6-yl]amino]-N,1-dimethyl-cyclo-pentanecarboxamide]
< 25 nM | O=C(N[C@@H]1CCOC1)[C@@H]1CC[C@@H](Nc2ncc3c(Br)nn(-c4cc(F)c5ncccc5c4)c3n2)C1 [(1R,3R)-3-((3-bromo-1-(8-fluoroquinolin-6-yl)-1H-pyrazolo[3,4-d]pyrimidin-6-yl)amino)-N-((R)-tetrahydrofuran-3-yl)cyclopentane-1-carboxamide]
25 to 200 nM | CNC(=O)[C@@H]1CC[C@@H](Nc2ncc3c(Br)nn(-c4cc(C(F)F)c5ncccc5c4)c3n2)C1 [(1R,3R)-3-((3-bromo-1-(8-(difluoromethyl)quinolin-6-yl)-1H-pyrazolo[3,4-d]pyrimidin-6-yl)amino)-N-methylcyclopentane-1-carboxamide]
